Source: patent US6458549B2, “Methods of diagnosing renal salt wasting syndrome and Alzheimer's disease and methods of treating the same” (Winthrop-University Hospital, priority 1998, dated 2002)
Entries after “also recorded” stand apart in the source; their conditions may differ.

Assays:
LLC-PK1 cells = experiment: TUNEL apoptosis assay (apoptotic index) in cultured LLC-PK1 cells; format: cell-based, pig; conditions: for Apoptotic activity (in words): substance alone; for AI: 2 h
Experimental: Cell Culture and Assay Protocol. LLC-PK1, a pig kidney epithelial cell line was plated at a density of 10^3 cells per well into eight-well Permanox plastic chamber slides (NUNC, Naperville, Ill.). The cells were cultured at 37° C. in 5% CO2 in humidified incubators and grown for 3 days to 70-80% confluency in DMEM-F12 that was supplemented with 10% fetal calf serum, 7.5% sodium bicarbonate, 15 mM HEPES, 200 mM L-Glutamate, 100 u penicillin and 0.1 ug/ml streptomycin (Life Technologies, Gaithersburg, Md.). The culture fluid was then removed and cells were exposed to plasma from control individuals, Alzheimer's disease patients or multi-infarct dementia patients diluted 1:5 in fresh DMEM-F12 media, supplemented as above, for 2 h at 37° C. The cells were then rinsed in PBS, and fixed in 4% formaldehyde in PBS for 10 min., permeabilized with 0.5% Triton X-100 (Sigma Chemical CO., St. Louis, Mo.) for 5 min. and washed in 4 changes of distilled water. A positive control was obtained by exposing cells to 0.6 mM H2O2 diluted in DMEM-F12 for 2 h.
Apoptosis Assay (TUNEL): Nuclear DNA fragmentation consistent with apoptosis was determined by the method of TdT-mediated dUTP-biotin nick-end labeling (TUNEL) (Y. Gavrieli et al., J. Cell. Biol. 119:493-501, 1992). The ApopDetek cell death assay kit (Enzo, Farmingdale, N.Y.) was used utilizing terminal deoxynucleotide transferase to incorporate Bio-16-dUTP onto the 3′-OH termini in the DNA of apoptotic cells, subsequent binding with streptavidin-horseradish peroxidase, and visualization after conversion of the substrate and chromagen (hydrogen peroxide and aminoethylcarbazole) into a localized brick red precipitate. A blue counter stain was also used. Slides were then observed for morphologically irregular and condensed nuclei which contain dark red precipitate to indicate TUNEL-positive cells using a Nikon (Nikon, Inc., Melville, N.Y.) Optiphot microscope. Five to six random field totaling approximately 1,000 to 1,500 cells were counted per slide. Apoptotic index (AI), defined as the percent of cells undergoing apoptosis, is calculated by dividing the number of positive nuclei by the total number of nuclei counted multiplied by 100. […]
Effect of Protein Synthesis on Apoptotic Activity. LLC-PK1 cells were exposed to Alzheimer's disease and control plasma in the absence and presence of cycloheximide (0.2-200 uM) (Sigma, St. Louis, Mo.). Apoptotic index was measured in these cells by TUNEL assay.
Effect of Calcium Depletion on Factor Activity. The TUNEL assay was performed in the usual manner except for substituting DMEM-F12 with calcium-free DMEM, supplemented with dialyzed 10% fetal calf serum (Life Technologies, Grand Island, N.Y.) and 0.6 mM EGTA to chelate calcium. Dialyzed Alzheimer's disease and control plasma were then added to the calcium-free media for 2 h at 37° C. and a TUNEL assay performed.
Contribution of Known Apoptotic Inducers. To test the possibility that the apoptotic factor in Alzheimer's disease plasma was β amyloid, TNF-α or myeloma light chain, the TUNEL assay was repeated as above after a 2 h incubation at 37° C. with […] β amyloid (Peninsula Laboratories, Inc., Belmont, Calif.), 5 pM-3 nM TNF-α (Quantikine, Minneapolis, Minn.) and 3-60 ug λ myeloma light chain, kindly supplied by Dr. Vecihi Batuman, Tulane University School of Medicine, New Orleans, La. To eliminate the possibility that a protease in Alzheimer's disease plasma is responsible for the apoptotic activity, the effect of a broad spectrum protease inhibitor cocktail (Boehringer Mannheim) was studied on apoptotic index using the TUNEL assay. LCC-PK1 cells were incubated with Alzheimer's disease plasma with and without the inhibitor cocktail and assayed as detailed above. This cocktail inhibits a large spectrum of serine, cysteine, and metalloproteases as well as calpains. It consists of aprotinin, leupeptin, EDTA, and pefabloc.

[1] = test system: human kidney proximal tubule cells; experiment: Apoptosis of human kidney proximal tubule cells in culture; format: cell-based
Experimental: Apoptosis Assay (TUNEL): Nuclear DNA fragmentation consistent with apoptosis was determined by the method of TdT-mediated dUTP-biotin nick-end labeling (TUNEL) (Y. Gavrieli et al., J. Cell. Biol. 119:493-501, 1992). The ApopDetek cell death assay kit (Enzo, Farmingdale, N.Y.) was used utilizing terminal deoxynucleotide transferase to incorporate Bio-16-dUTP onto the 3′-OH termini in the DNA of apoptotic cells, subsequent binding with streptavidin-horseradish peroxidase, and visualization after conversion of the substrate and chromagen (hydrogen peroxide and aminoethylcarbazole) into a localized brick red precipitate. A blue counter stain was also used. Slides were then observed for morphologically irregular and condensed nuclei which contain dark red precipitate to indicate TUNEL-positive cells using a Nikon (Nikon, Inc., Melville, N.Y.) Optiphot microscope. Five to six random field totaling approximately 1,000 to 1,500 cells were counted per slide. Apoptotic index (AI), defined as the percent of cells undergoing apoptosis, is calculated by dividing the number of positive nuclei by the total number of nuclei counted multiplied by 100.

## CCCCC[C@H](O)C/C=C1/C(=O)C=C[C@@H]1C/C=C\CCCC(=O)O [-Δ^12Prostaglandin J2]
LLC-PK1 cells
  Apoptotic activity (in words): increases the rate of apoptosis
[1]; addition of Δ12Prostaglandin J2 to Indomethacin
  Effect on apoptosis (in words): increased apoptosis
[1]; combination of Indomethacin, Prostaglandin D2 Synthase and Δ12Prostaglandin J2
  Effect on apoptosis (in words): increased apoptosis
[1]; substance alone
  Effect on apoptosis (in words): induces apoptosis; also recorded: increased apoptosis to the same degree as prostaglandin D2 synthase
[1]; substance alone, listed as -Δ^12prostaglandin J2
  Effect on apoptosis (in words): induces apoptosis

## C[C@@H]1C[C@@H]([C@H](O)CC2CC(=O)NC(=O)C2)C(=O)[C@@H](C)C1 [Cycloheximide, cycloheximide]
LLC-PK1 cells; 200 uM cycloheximide
  Effect on apoptosis by Alzheimer's disease plasma (in words): inhibition of apoptosis
LLC-PK1 cells; cycloheximide 200 uM, cells exposed to Alzheimer's plasma
  AI (%): 7.7 ± 1.6%
LLC-PK1 cells; cycloheximide 200 uM, cells exposed to control plasma
  AI (%): 6.3 ± 1.5%
LLC-PK1 cells; cycloheximide 0.2-20 uM, cells exposed to Alzheimer's plasma
  AI (%): 28.7 ± 4.0%
LLC-PK1 cells; cycloheximide 0.2-20 uM, cells exposed to control plasma
  AI (%): 5.0 ± 0.0%
LLC-PK1 cells; lower concentrations of cycloheximide
  Effect on apoptosis by Alzheimer's disease plasma (in words): no inhibition of apoptosis

## COc1ccc2c(c1)c(CC(=O)O)c(C)n2C(=O)c1ccc(Cl)cc1 [Indomethacin]
[1]; simultaneous addition of Indomethacin and Prostaglandin D2 Synthase
  Effect on apoptosis (in words): did not increase apoptosis above baseline
[1]; substance alone
  Effect on apoptosis (in words): inhibited apoptosis to baseline

## CCN1C(=O)C=CC1=O [N-Ethyl Maleimide]
[1]; deactivation/inhibition of Prostaglandin D2 Synthase by N-Ethyl Maleimide
  Effect on apoptosis (in words): inhibited apoptosis

## CCCCC[C@H](O)/C=C/[C@H]1C(=O)C[C@H](O)[C@@H]1C/C=C\CCCC(=O)O [Prostaglandin D, prostaglandin D2]
[1]; substance alone
  Effect on apoptosis (in words): did not increase apoptosis

## CCCCC[C@H](O)/C=C/[C@@H]1[C@@H](C/C=C\CCCC(=O)O)[C@@H]2C[C@H]1OO2 [Prostaglandin H, prostaglandin H2]
[1]; substance alone
  Effect on apoptosis (in words): did not increase apoptosis

## Prostaglandins E [Prostaglandin E]
[1]; substance alone
  Effect on apoptosis (in words): did not increase apoptosis

## TNF-α
LLC-PK1 cells; doses as high as 50 pM
  AI: 6%

## β-amyloid
LLC-PK1 cells; 50 uM in media
  AI: 6.1±3.1%
LLC-PK1 cells
  Apoptotic activity (in words): No detectable apoptotic activity

B1: α1 microglobulin: protein co-found in the 32 Kd band from urine of a renal salt wasting patient (protein, UniProt P02760 20-203, looked up)
Alpha-1-microglobulin: GPVPTPPDNIQVQENFNISRIYGKWYNLAIGSTCPWLKKIMDRMTVSTLVLGEGATEAEISMTSTRWRKGVCEETSGAYEKTDTDGKFLYHKSKWNITMESYVVHTNYDEYAIFLTKKFSRHHGPTITAKLYGRAPQLRETLLQDFRVVAQGVGIPEDSIFTMADRGECVPGEQEPEPILIPRV
modifications: Alpha-1-microglobulin
notes: protein co-found in the 32 Kd band from urine of a renal salt wasting patient
LLC-PK1 cells
  Apoptotic activity (in words): no apoptotic activity

B2: Prostaglandin D2 Synthase: enzyme that converts prostaglandin H2 to prostaglandin D2; identified apoptotic factor (protein, UniProt P41222 23-190, looked up)
Prostaglandin-H2 D-isomerase: APEAQVSVQPNFQQDKFLGRWFSAGLASNSSWLREKKAALSMCKSVVAPATDGGLNLTSTFLRKNQCETRTMLLQPAGSLGSYSYRSPHWGSTYSVSVVETDYDQYALLYSQGSKGPGEDFRMATLYSRTQTPRAELKEKFTAFCKAQGFTEDTIVFLPQTDKCMTEQ
[1]; substance alone
  Effect on apoptosis (in words): increased apoptosis
  Increase of apoptosis above control: about four times above control
